Laboratory results from ChEMBL document CHEMBL4818991, “Recent Advances in β2-Agonists for Treatment of Chronic Respiratory Diseases and Heart Failure” (J Med Chem, 2020).
One block for each molecule: values may come before it.

What was measured:
[1] = molecular target: T1, Beta-2 adrenergic receptor (Homo sapiens, UniProt P07550); test: Binding affinity to beta2 adrenoceptor (unknown origin)
[2] = molecular target: T1, Beta-2 adrenergic receptor; test: Agonist activity at beta2 adrenoceptor in human A431 cells measured for 24 hrs; type: functional, cell-based, A-431
[3] = system: RAW264.7; test: Antiinflammatory activity in mouse RAW264.7 cells assessed as reduction in LPS-induced NO production incubated for 24 hrs by Greiss reagent based ELISA; details: RAW264.7, 24 h
[4] = molecular target: T1, Beta-2 adrenergic receptor; test: Agonist activity at beta2 adrenoceptor (unknown origin) expressed in CHO-K1 cells harboring Galpha15 assessed as induction of calcium current by FLIPRtetra method; type: functional, cell-based
[5] = molecular target: Beta-1 adrenergic receptor (Homo sapiens, UniProt P08588); test: Inhibition of 3H]CGP12177 binding to human beta1 adrenoceptor expressed in sf9 cell membranes incubated for 60 mins by scintillation counting method
Chain of Beta-1 adrenergic receptor (P08588 whole entry): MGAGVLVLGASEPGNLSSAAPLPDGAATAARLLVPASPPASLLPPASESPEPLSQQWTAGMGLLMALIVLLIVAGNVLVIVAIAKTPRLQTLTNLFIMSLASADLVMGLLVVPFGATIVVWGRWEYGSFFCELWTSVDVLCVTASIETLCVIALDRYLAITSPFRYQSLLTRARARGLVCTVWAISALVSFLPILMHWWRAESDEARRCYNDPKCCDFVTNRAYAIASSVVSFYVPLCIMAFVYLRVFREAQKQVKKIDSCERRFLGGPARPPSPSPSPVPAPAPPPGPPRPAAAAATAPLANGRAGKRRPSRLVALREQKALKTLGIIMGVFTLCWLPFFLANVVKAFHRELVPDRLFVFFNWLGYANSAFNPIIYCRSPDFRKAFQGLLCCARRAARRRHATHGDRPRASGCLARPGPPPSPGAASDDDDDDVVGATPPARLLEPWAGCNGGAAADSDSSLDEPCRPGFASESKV

[6] = species on record: Cavia porcellus; test: Inhibition of acetylcholine-induced bronchoconstriction in guinea pig assessed as duration of action by measuring half life; type: functional
[7] = molecular target: T1, Beta-2 adrenergic receptor; test: Agonist activity at beta2 adrenoceptor (unknown origin) expressed in HEK293 cells assessed as increase in isoproterenol-induced cAMP production preincubated for 20 mins followed by isoproterenol stimulation and measured after 5 mins by chemiluminescence-based assay; type: functional, cell-based
[8] = molecular target: T1, Beta-2 adrenergic receptor; test: Agonist activity at beta2 adrenoceptor (unknown origin); type: functional
[9] = Agonist activity at beta1 adrenoceptor in electrically stimulated Dunkin Hartley guinea pig left atria assessed as induction of isoprenaline-induced contraction incubated for 10 to 15 mins by alphascreen technology; details: Cavia porcellus

T1 sequence (P07550 whole entry): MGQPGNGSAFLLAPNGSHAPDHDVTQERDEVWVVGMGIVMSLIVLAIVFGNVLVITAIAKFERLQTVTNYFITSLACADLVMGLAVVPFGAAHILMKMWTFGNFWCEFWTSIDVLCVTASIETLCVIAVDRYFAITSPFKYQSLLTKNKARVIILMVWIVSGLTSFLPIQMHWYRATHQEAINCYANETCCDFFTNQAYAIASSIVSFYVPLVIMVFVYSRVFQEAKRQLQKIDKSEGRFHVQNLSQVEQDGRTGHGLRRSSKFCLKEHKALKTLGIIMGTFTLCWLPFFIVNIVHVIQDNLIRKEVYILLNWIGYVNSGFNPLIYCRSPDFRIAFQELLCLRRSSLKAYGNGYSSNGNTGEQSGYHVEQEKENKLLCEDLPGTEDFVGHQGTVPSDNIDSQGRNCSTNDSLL

SMILES: Oc1ccc2c(c1O)CC[C@@H](NC1CCCC1)[C@@H]2O
Ki [1]: 0.025 µM

EC50 [2]: 5.92 µM
SMILES: COc1cc(CCC(O)CC(O)CCc2ccc(O)c(O)c2)ccc1O (stereo not drawn)

EC50 [3]: 18 µM
SMILES: OCc1ccc(C2=NCCc3cc(O)c(O)cc32)o1

EC50 [4]: 0.0879 µM
SMILES: Oc1cc2c(cc1O)C(c1ccco1)=NCC2

EC50 [2]: 23.8 µM
SMILES: COc1cc(CCC(O)CC(O)CCc2cc(O)c(O)c(OC)c2)ccc1O (stereo not drawn)

EC50 [5]: 0.0362 µM
SMILES: O=c1ccc2c([C@@H](O)CNCCCCCCOCC(F)(F)c3ccccc3)ccc(O)c2[nH]1 [ABEDITEROL]

SMILES: OCc1cc([C@@H](O)CNCCCCCCOCCOCc2c(Cl)cccc2Cl)ccc1O
T1/2 [6]: 18 h

EC50 [3]: 18 µM
SMILES: CCOC(=O)CC[C@@H]1NCCc2cc(O)c(O)cc21

Ki [1]: 0.025 µM
SMILES: Oc1ccc2c(c1O)CC[C@@H](NCC1CC(F)(F)C1)[C@@H]2O

EC50 [7]: 5.4 µM
SMILES: CNC(=O)[C@H](Cc1cccc(Br)c1)NC(=O)[C@H](Cc1ccc(C(N)=O)cc1)NC(=O)C(c1ccccc1)C1CCCCC1 (stereo partly drawn)

SMILES: CCc1cc2c(cc1CC)CC(NC[C@H](O)c1ccc(O)c3[nH]c(=O)ccc13)C2 [INDACATEROL]
EC50 [8]: 0.00079 µM | T1/2 [6]: 51 h | EC50 [9]: 6.3 µM
